# Source: PubChem BioAssay (NCI)
# Values joined by “and” are separate entries in the source; they are usually repeats but may differ in a detail not shown here. Equal entries are not always repeated.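 48-hour exposure; five concentrations; linearly interpolated endpoints. GI50 is the concentration that inhibits growth by half. Definition used: TGI = concentration required for complete inhibition of growth.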
# Legend:
# Test in all cases: DTP human tumour cell line panel, 48 h
# SF-539 CNS = system: SF-539 CNS
# UACC-257 melanoma = system: UACC-257 melanoma
# U251 CNS = system: U251 CNS
# RXF 393 renal = system: RXF 393 renal
# HCC-2998 colon = system: HCC-2998 colon
# ACHN renal = system: ACHN renal
# MOLT-4 leukemia = system: MOLT-4 leukemia
# A498 renal = system: A498 renal
# EKVX NSCLC = system: EKVX NSCLC
# NCI-H460 lung = system: NCI-H460 lung
Structure (SMILES),GI50 (SF-539 CNS),TGI (SF-539 CNS),GI50 (UACC-257 melanoma),TGI (UACC-257 melanoma),GI50 (U251 CNS),TGI (U251 CNS),GI50 (RXF 393 renal),TGI (RXF 393 renal),GI50 (HCC-2998 colon),TGI (HCC-2998 colon),GI50 (ACHN renal),TGI (ACHN renal),GI50 (MOLT-4 leukemia),TGI (MOLT-4 leukemia),GI50 (A498 renal),TGI (A498 renal),GI50 (EKVX NSCLC),TGI (EKVX NSCLC),GI50 (NCI-H460 lung),TGI (NCI-H460 lung)
COc1ccc([C@H]2c3cc(OC)c(OC)cc3C=C(C=O)C2CO)cc1OC (stereo partly drawn),3.33 µM,> 100 µM,> 100 µM,> 100 µM,4.42 µM,> 100 µM,3.27 µM,> 100 µM,12.1 µM,76.3 µM,7.53 µM,> 100 µM,> 100 µM,> 100 µM,19 µM,> 100 µM,5.29 µM,> 100 µM,3.51 µM,> 100 µM
Cc1cc(O)c2c(c1)C[C@@H](O)C1=C2C(=O)c2c(O)ccc(OC3CC(O)C(OC4CC(OC5CCC(OC6CC(O)C(OC7CC(OC8CCC(O)C(C)O8)C(O)C(C)O7)C(C)O6)C(C)O5)C(O)C(C)O4)C(C)O3)c2C1=O (stereo partly drawn),0.391 µM and 1.31 µM,,1.38 µM and 0.844 µM,,0.469 µM and 0.306 µM,,0.302 µM and 0.29 µM,0.108 µM and 0.535 µM and 0.751 µM,1.76 µM and 1.45 µM,,1.52 µM and 0.726 µM,,0.0541 µM,0.216 µM and 0.343 µM,2.72 µM and 2.47 µM,,1.7 µM and 1.37 µM,,,0.485 µM
O=C1CCC/C=C\C[C@H]2C=C(Cl)C(=O)/C2=C/C[C@H](CCCCC(F)(F)F)OC(=O)CCC/C=C\C[C@H]2C=C(Cl)C(=O)/C2=C/C[C@H](CCCCC(F)(F)F)O1,0.257 µM,1.52 µM,0.685 µM,2.3 µM,0.226 µM,0.772 µM,0.134 µM,0.279 µM,0.215 µM,0.64 µM,0.262 µM,1.02 µM,0.24 µM,1.6 µM,0.965 µM,2.12 µM,0.283 µM,1.18 µM,0.257 µM,1.03 µM
[N-]=[N+]=Nc1ccc(S(=O)(=O)Oc2cc(OS(=O)(=O)c3ccc(N=[N+]=[N-])cc3)cc(OS(=O)(=O)c3ccc(N=[N+]=[N-])cc3)c2)cc1,,> 100 µM,,> 100 µM,,> 100 µM,,> 100 µM,,> 100 µM,,> 10 µM,,> 100 µM,,> 100 µM,,> 100 µM,,> 100 µM
Cc1cc(Cl)n2c(nc3ccccc32)c1C#N,0.576 µM,7.86 µM,0.727 µM,4.8 µM,0.482 µM,3.17 µM,0.854 µM,2.66 µM,0.727 µM,2.31 µM,0.567 µM,1.84 µM,1.06 µM,22.8 µM,4.18 µM,17.7 µM,7.84 µM,24.8 µM,0.6 µM,8.9 µM
O=C(CC(O)(c1ccccc1)c1ccc(Cl)cc1)NC(=O)c1ccccc1O (stereo not drawn),,46.8 µM,,32.6 µM,,26.5 µM,,49 µM,,21.1 µM,,99 µM,,46.7 µM,,8.62 µM,,68.2 µM,,26.7 µM
Cc1ncc(C(=O)Nc2ccc(CN3CCN(C)CC3)c(C(F)(F)F)c2)cc1C#Cc1c(N)ncc2ccc(C#N)cc12,1.14 µM,8.06 µM,0.473 µM,10.5 µM,5.8 µM,14.4 µM,0.327 µM,1.29 µM,4.96 µM,> 40.9 µM,0.293 µM,3.35 µM,1.03 µM,19.4 µM,1.21 µM,4.55 µM,0.54 µM,> 22.8 µM,4.05 µM,12.1 µM
CCCCN(CCCC)C(=Nc1ccccc1)N(CCCC)CCCC,,24.6 µM,,37.5 µM,,17.4 µM,,25.6 µM,,15.4 µM,,82 µM,,13.1 µM,,37.8 µM,,17.5 µM,,19.1 µM
C=C1C(=O)OC2C1C(OC(=O)/C(=C/C)COC(C)=O)CC1(CO1)C1C(OC(=O)/C(=C/C)CO)C=C(C)C21 (stereo not drawn),,19.5 µM,,6.99 µM,,35.1 µM,,2.31 µM,,3.39 µM,,4.4 µM,,2.24 µM,,8.94 µM,,4.16 µM,,28.3 µM
O=C(Nc1nc2ncn(CCOC(=O)c3ccccc3)c2c(=O)[nH]1)c1ccccc1,,65.2 µM,,> 100 µM,,> 64.8 µM,,> 93.2 µM,,> 100 µM,,> 100 µM,,> 100 µM,,> 100 µM,,> 100 µM,,> 100 µM
COc1ccc(CCNc2nc3ccccc3c3[nH]c4ccccc4c23)cc1OC,2.17 µM,4.06 µM,1.99 µM,3.8 µM,2.97 µM,10.3 µM,1.47 µM,3.15 µM,1.6 µM,3.1 µM,3.91 µM,17.1 µM,3.23 µM,12.3 µM,2.75 µM,9.48 µM,22.6 µM,45.3 µM,2.1 µM,5.93 µM
COC1CC(OC2OC(CO)C(O)C(O)C2O)/C(=C\C#N)C(O)C1OC (stereo not drawn),,> 100 µM,,> 100 µM,,> 100 µM,,> 100 µM,,> 100 µM,,> 100 µM,,> 100 µM,,> 100 µM,,> 100 µM,,> 100 µM
O=c1c(Cl)nsnc1Cl,,28.1 µM,,26.8 µM,,35.9 µM,,24.8 µM,,35.2 µM,,14.7 µM,,4.09 µM,,28.8 µM,,58.2 µM,,> 73.1 µM
COc1c(O)c2ccccc2c2cc(O)ccc12,,9.88 µM,,5.24 µM,,17.9 µM,,22.9 µM,,32.7 µM,,14.5 µM,,77.4 µM,,24.1 µM,,32.9 µM,,23.3 µM
Clc1ccc(Cl)c(N/N=C\c2c[nH]c3ccccc23)c1,8.16 µM,21 µM,15.2 µM,28.9 µM,22 µM,> 100 µM,10.3 µM,24.8 µM,13.6 µM,29.9 µM,12 µM,32.6 µM,0.293 µM,11.8 µM,14.5 µM,29.6 µM,2.36 µM,15.5 µM,> 100 µM,> 100 µM
CCC12C=CCN3CC[C@]4(C(=C(C(=O)OC)[C@@H]1Nc1ncnc5c1ncn5C1OC(COC(C)=O)C(OC(C)=O)C1OC(C)=O)Nc1ccccc14)C32 (stereo partly drawn),,4.4 µM,,16.8 µM,,4.91 µM,,3.92 µM,,4.56 µM,,5.69 µM,,25.3 µM,,4.56 µM,,16.2 µM,,5.99 µM
CC(=O)O[C@@H]1C=CC(=O)C2(CC(=O)O[C@@H]2/C=C(\C)CCC=C(C)C)C1 (stereo partly drawn),0.591 µM,1.44 µM,1.03 µM,2.6 µM,0.82 µM,2.07 µM,0.185 µM,0.962 µM,0.601 µM,1.99 µM,1.16 µM,2.43 µM,0.126 µM,1.03 µM,1.73 µM,3.81 µM,3.28 µM,7.87 µM,0.378 µM,2.2 µM
Cc1cc2c(-c3nc4ccccc4[nH]3)c(O)c(O)cc2c(O)c1-c1c(C)cc2c(-c3nc4ccccc4[nH]3)c(O)c(O)cc2c1O,0.0344 µM,0.494 µM,0.136 µM,16.2 µM,0.0174 µM,,0.0434 µM,3.56 µM,0.0362 µM,8.65 µM,0.0292 µM,0.697 µM,0.019 µM,> 50 µM,0.00875 µM,0.0374 µM,0.0315 µM,> 28.9 µM,0.00751 µM,0.112 µM
COc1ccc(CN2CCc3c(Cl)nc(N)nc3C2=O)c(OC)c1,15.8 µM,31.7 µM,19.3 µM,49.1 µM,14.6 µM,27.9 µM,22.7 µM,52.9 µM,17.3 µM,31.6 µM,20.4 µM,48.5 µM,2.46 µM,34.6 µM,23.7 µM,81.5 µM,16.8 µM,61.7 µM,18.6 µM,42.6 µM
CN(C)C1(C#N)CCC2(CC1)OCCO2,,> 100 µM,,> 100 µM,,> 100 µM,,> 100 µM,,> 100 µM,,> 100 µM,,> 100 µM,,> 100 µM,,> 100 µM,,> 100 µM
O=C(Nc1ccc(Cl)cc1)NS(=O)(=O)c1ccc2c(c1)CCC2,17.6 µg/mL,> 69.2 µM and 37 µg/mL,27.8 µg/mL,> 100 µM and 80.6 µg/mL,22.5 µg/mL,> 77.5 µM and 48.3 µg/mL,2.52 µg/mL,79.3 µM and 22.8 µg/mL,17.3 µg/mL,> 77.6 µM and 36.8 µg/mL,16.1 µg/mL,> 100 µM and 49.6 µg/mL,19.7 µg/mL,98.2 µM and 74.6 µg/mL,19.1 µg/mL,> 100 µM and 38 µg/mL,22.4 µg/mL,> 100 µM and 72.1 µg/mL,7.71 µg/mL,> 46.4 µM and 36.6 µg/mL
CCc1cc(C(N)=O)ccc1-n1nc(C(C)C)c2c(-n3cnc(-c4cnn(C)c4)c3)ccnc21,3.08 µM,> 100 µM,2.9 µM,> 100 µM,3.82 µM,> 100 µM,3.09 µM,> 100 µM,3.39 µM,> 100 µM,1.62 µM,> 100 µM,0.955 µM,> 100 µM,4.99 µM,> 100 µM,16.3 µM,> 100 µM,0.566 µM,> 100 µM
C=C1C(=O)O[C@@H]2[C@@H]3O[C@@](C)(CC/C=C(\C)CCC[C@@H]2C)[C@H](O)C[C@@H]13,2.7 µM,8.9 µM,1.29 µM,4.27 µM,3.75 µM,15.6 µM,1.79 µM,3.58 µM,,18 µM,1.59 µM,3.11 µM,2.75 µM,7.64 µM,8.87 µM,21.3 µM,5.56 µM,20.3 µM,,31.6 µM
Cc1ccc(CCC(=O)Nc2ncc(Cc3cc(Cl)ccc3Cl)s2)o1,0.218 µM,0.712 µM,13.4 µM,> 100 µM,0.202 µM,3.39 µM,0.256 µM,1.75 µM,0.312 µM,6.41 µM,0.665 µM,4.85 µM,0.222 µM,> 44.2 µM,0.171 µM,0.801 µM,0.466 µM,> 100 µM,0.233 µM,
O=C(CC1Sc2ccccc2NC1=O)Nc1cccc(Cl)c1 (stereo not drawn),,> 100 µM,,> 100 µM,,82.8 µM,,80.4 µM,,> 100 µM,,> 100 µM,,57.2 µM,,> 100 µM,,84.8 µM,,> 100 µM
COc1cc[c]([Hg][Cl])cc1,3.3 µM,11.1 µM,4.16 µM,14.5 µM,1.82 µM,3.51 µM,1.76 µM,3.14 µM,13.5 µM,27.8 µM,1.81 µM,3.47 µM,1.64 µM,6.59 µM,17.6 µM,31.5 µM,9.51 µM,22.8 µM,10.3 µM,25.5 µM
COC(=O)C1=CC(=O)C(C(=O)Nc2ccc(OC)cc2)C(c2ccccc2)O1 (stereo not drawn),,40.3 µM,,> 100 µM,,51.2 µM,,52.8 µM,,> 78.7 µM,,> 71.9 µM,,> 100 µM,,68 µM,,> 100 µM,,> 100 µM
CCc1ccc(Cc2ccc(CC)c(NC(=O)C(=O)Cc3nc4ccccc4nc3C)c2CC)c(CC)c1NC(=O)C(=O)Cc1nc2ccccc2nc1C,,> 100 µM,,> 100 µM,,> 100 µM,,> 100 µM,,> 100 µM,,> 100 µM,,> 100 µM,,> 100 µM,,> 100 µM,,> 100 µM
CC(=O)NNc1nc(C)c(C(/C=C/c2ccc(/C=C/C(=N\NC(=O)c3ccncc3)c3sc(NNC(C)=O)nc3C)cc2)=N/NC(=O)c2ccncc2)s1,,> 100 µM,,> 100 µM,,> 100 µM,,> 100 µM,,> 100 µM,,> 100 µM,,> 100 µM,,> 100 µM,,> 100 µM,,> 100 µM
